In publication PMC10541425, “Targeting Toll-like receptor-driven systemic inflammation by engineering an innate structural fold into drugs” (Nature Communications, 2023):
Where two headings read alike, the source gives them in different places. Residues, ends and D or L forms follow the SMILES beside them.

Tests used:
[1] = target: T1, human neutrophil elastase (HNE) (Homo sapiens, UniProt P08246); assay: Protease degradation with human neutrophil elastase (SDS-PAGE, RP-HPLC, LC-MS/MS); assay type: in vitro ADME
T1 construct: purchased Calbiochem, Merck, Darmstadt, Germany
T1 sequence (P08246 30-267): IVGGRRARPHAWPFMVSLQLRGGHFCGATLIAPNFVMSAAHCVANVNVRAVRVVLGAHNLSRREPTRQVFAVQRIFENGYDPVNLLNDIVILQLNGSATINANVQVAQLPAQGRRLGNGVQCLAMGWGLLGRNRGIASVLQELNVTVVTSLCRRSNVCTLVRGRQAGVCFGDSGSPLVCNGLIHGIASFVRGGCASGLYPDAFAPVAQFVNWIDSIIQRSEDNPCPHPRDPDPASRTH
Protocol: (§1) The peptide was pre-mixed with Buffer A (1:3) 5 min before being loaded on the column. Protease-digested peptides were analyzed by HPLC as described above. Samples from two different digestions were analyzed.
(§2) Peptides were resuspended in endotoxin-free water at a final concentration of 1 mM. […] All digestions were performed in three independent experiments.
(§3) Two micrograms of peptide from each condition were loaded on 10–20% Novex Tricine pre-cast gels (Invitrogen, Carlsbad, CA, USA). The run was performed at 100 V for 100 min. The gel was stained by using Coomassie Brilliant blue (Invitrogen, Carlsbad, CA, USA), and images were acquired with a Gel Doc Imager (Bio-Rad Laboratories, Hercules, CA, USA). Samples from three independent digestions were analyzed.
(§4) LC-MS/MS analysis was performed using an HFX Orbitrap MS system (Thermo Scientific, San Jose, CA, USA) equipped with a Dionnex 3000 Ultimate HPLC (Thermo Fisher, USA). Settings were used as previously described by Petruk et al.[55] with minor changes. […] The precursor tolerance was set to 10 ppm and 0.02 Da for the MSMS fragments, and no enzyme was selected, allowing unspecific cleavage. Samples from two independent digestions were analyzed.

in vitro = conditions: human, THP1-XBlue-CD14 reporter cells, Cell viability
Protocol: (§5) Effects on NF-κB activation were assessed using THP1-XBlue-CD14 reporter cells (InvivoGen, San Diego, CA, USA). Briefly, 180,000 cells well^−1 were seeded in 96-well plates in phenol red RPMI media, supplemented with 10% (vv^−1) heat-inactivated FBS and 1% (vv^−1) Antibiotic-Antimycotic solution (AA). […] NF-κB activation was determined after 20 h of incubation according to the manufacturer’s instructions (InvivoGen, San Diego, CA, USA) by mixing 20 μL of supernatant with 180 μL of SEAP detection reagent (Quanti-BlueTM, InvivoGen, San Diego, CA, USA), followed by absorbance measurement at 600 nm. Data shown are mean values ± SD obtained from at least four independent experiments, all made in triplicate. In another set of experiments, the cells were stimulated with 100 ng mL^−1 of E. coli LPS, 1 μg mL^−1 S. aureus LTA, 1 μg mL^−1 E. coli PGN, 1 μg mL^−1 S. aureus PGN, or 10 μg mL^−1 S. cerevisiae zymosan in the presence or the absence of 10 μM of linear and stapled HVF18. The experiment was performed as described above.

[2] = system: THP1-XBlue-CD14 reporter cells
Protocol: as §5

[3] = Cell viability of THP1-XBlue-CD14 reporter cells; conditions: human; for viability at 20 h, 1 µM: 1 µM peptide; for viability at 20 h, 2 µM: 2 µM peptide; for viability at 20 h, 5 µM: 5 µM peptide; for viability at 20 h, 10 µM: 10 µM peptide; for viability at 20 h, 20 µM: 20 µM peptide
Protocol: as §5

[4] = CD analysis after exposure to 80 °C (conformational stability); assay type: physicochemical; conditions: then CD, minima at 208 and 222 nm
[5] = target: T2, P. aeruginosa elastase (PE) (Pseudomonas aeruginosa, UniProt P14756); assay type: in vitro ADME
T2 construct: purchased Calbiochem, Merck, Darmstadt, Germany
Protocol: as §1, §2, §3, §4

hCD14 = target: T3, hCD14 (Homo sapiens, UniProt P08571, C306S); assay: Microscale thermophoresis, binding to CD14; conditions: 10 mM Tris pH 7.4, read-out: Kd (µM) to CD14, MST
T3 construct: His-tag; non-native C-terminal linker with a protease-site-like motif, seen in the peptide map at 335-349 (C); made in house; host or cells: insect cells
T3 sequence (P08571 with tags, fused parts or gaps C306S limits assumed): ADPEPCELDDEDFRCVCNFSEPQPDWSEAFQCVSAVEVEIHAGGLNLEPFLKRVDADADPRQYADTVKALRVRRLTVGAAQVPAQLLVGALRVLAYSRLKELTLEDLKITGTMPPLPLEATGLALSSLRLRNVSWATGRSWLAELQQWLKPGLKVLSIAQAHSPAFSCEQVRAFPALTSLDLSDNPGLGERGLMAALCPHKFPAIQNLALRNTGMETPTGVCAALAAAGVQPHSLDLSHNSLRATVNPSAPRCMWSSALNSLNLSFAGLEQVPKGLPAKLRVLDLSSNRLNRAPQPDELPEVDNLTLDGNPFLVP
Protocol: Microscale thermophoresis (MST) was performed on a NanoTemper Monolith NT.115 apparatus (Nano Temper Technologies, Germany). A Monolith NT Protein labeling kit RED – NHS (Nano Temper Technologies, Germany) was used to label 20 μM of recombinant hCD14 according to the manufacturer’s protocol. […] The sample was then loaded into standard glass capillaries (Monolith NT Capillaries, Nano Temper Technologies), and MST analysis was performed (settings for the light-emitting diode and infrared laser were 80%).

T2 sequence (P14756 198-498): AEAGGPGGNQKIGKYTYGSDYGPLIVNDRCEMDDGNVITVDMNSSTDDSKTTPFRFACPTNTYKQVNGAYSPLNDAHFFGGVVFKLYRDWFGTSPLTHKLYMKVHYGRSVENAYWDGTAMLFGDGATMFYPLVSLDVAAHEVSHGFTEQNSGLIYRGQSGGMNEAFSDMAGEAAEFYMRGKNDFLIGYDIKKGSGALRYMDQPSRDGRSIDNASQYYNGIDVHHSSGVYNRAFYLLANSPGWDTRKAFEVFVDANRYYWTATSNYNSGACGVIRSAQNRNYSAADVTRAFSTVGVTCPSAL

| Compound | viability at 20 h, 10 µM (in vitro; LTA 1 µg/ml + peptide) [%] | viability at 20 h, 10 µM (in vitro; PGN-SA 10 µg/ml + peptide) [%] | Cell viability, PGN-EB 1 µg/ml + peptide [2] | viability at 20 h, 1 µM ([3]; with LPS, replicate 1) [%] | viability at 20 h, 1 µM ([3]; with LPS, replicate 2) [%] | viability at 20 h, 1 µM ([3]; with LPS, replicate 3) [%] | viability at 20 h, 1 µM ([3]; with LPS, replicate 4) [%] | viability at 20 h, 2 µM ([3]; with LPS, replicate 1) [%] | viability at 20 h, 2 µM ([3]; with LPS, replicate 2) [%] | viability at 20 h, 2 µM ([3]; with LPS, replicate 3) [%] | viability at 20 h, 2 µM ([3]; with LPS, replicate 4) [%] | viability at 20 h, 5 µM ([3]; with LPS, replicate 1) [%] | viability at 20 h, 5 µM ([3]; with LPS, replicate 2) [%] | viability at 20 h, 5 µM ([3]; with LPS, replicate 3) [%] | viability at 20 h, 5 µM ([3]; with LPS, replicate 4) [%] | viability at 20 h, 10 µM ([3]; with LPS, replicate 1) [%] | viability at 20 h, 10 µM ([3]; with LPS, replicate 2) [%] | viability at 20 h, 10 µM ([3]; with LPS, replicate 3) [%] | viability at 20 h, 10 µM ([3]; with LPS, replicate 4) [%] | viability at 20 h, 20 µM ([3]; with LPS, replicate 1) [%] | other results |
| --- | --- | --- | --- | --- | --- | --- | --- | --- | --- | --- | --- | --- | --- | --- | --- | --- | --- | --- | --- | --- | --- |
| CC[C@H](C)[C@H](NC(=O)[C@H](Cc1c[nH]c2ccccc12)NC(=O)[C@H](CCCCN)NC(=O)[C@H](CCCCN)NC(=O)[C@H](CC(C)C)NC(=O)[C@H](CCCNC(=N)N)NC(=O)[C@H](Cc1ccccc1)NC(=O)[C@@H](NC(=O)[C@@H](N)Cc1c[nH]cn1)C(C)C)C(=O)N[C@@]1(C)CCCC=CCCC[C@@](C)(C(=O)N[C@@H](CCC(N)=O)C(=O)N[C@@H](Cc2ccccc2)C(=O)NCC(=O)N[C@@H](CCC(=O)O)C(=O)O)NC(=O)[C@H]([C@@H](C)CC)NC(=O)[C@H](C(C)C)NC(=O)[C@H](CCCCN)NC1=O [sHVF18] | 91.3 | 55.8 | 75.0616 | 88.7 | 90.5 | 78.9 | 86.3 | 102 | 92.8 | 74.9 | 96.3 | 106 | 93.7 | 79.1 | 95 | 99.1 | 88.8 | 82.4 | 87.8 | 104 | Fragmentation seen by LC-MS/MS after HNE digestion (in words) [1]: no identified sHVF18 fragments; Cell viability, PGN-SA 10 µg/ml + peptide [2]: 69.8483; Cell viability, Zymosan 10 µg/ml + peptide [2]: 73.0816; viability at 20 h, 20 µM ([3]; with LPS, replicate 2): 70.9%; viability at 20 h, 20 µM ([3]; with LPS, replicate 3): 67.5%; viability at 20 h, 20 µM ([3]; with LPS, replicate 4): 77.9%; viability at 20 h, 20 µM ([3]; without LPS, replicate 1): 112%; viability at 20 h, 20 µM ([3]; without LPS, replicate 2): 69.7%; viability at 20 h, 20 µM ([3]; without LPS, replicate 3): 81.5%; viability at 20 h, 20 µM ([3]; without LPS, replicate 4): 90.5%; Conformational stability after exposure to 80 °C (CD analysis) [4]: still presented an α-helical spectrum; Resistance to P. aeruginosa elastase (in words) ([5]; 0.2 µg PE, 0–18 h, SDS-PAGE, RP-HPLC, LC-MS/MS, versus linear peptide): improved resistance; Fragmentation seen by LC-MS/MS after PE digestion (in words) ([5]; 30 min and 3 h): no identified sHVF18 fragments |
| CC[C@H](C)[C@H](NC(=O)[C@H](Cc1c[nH]c2ccccc12)NC(=O)[C@H](CCCCN)NC(=O)[C@H](CCCCN)NC(=O)[C@H](CC(C)C)NC(=O)[C@H](CCCNC(=N)N)NC(=O)[C@H](Cc1ccccc1)NC(=O)[C@@H](NC(=O)[C@@H](N)Cc1cnc[nH]1)C(C)C)C(=O)N[C@@H](CCC(N)=O)C(=O)N[C@@H](CCCCN)C(=O)N[C@H](C(=O)N[C@H](C(=O)N[C@@H](CC(=O)O)C(=O)N[C@@H](CCC(N)=O)C(=O)N[C@@H](Cc1ccccc1)C(=O)NCC(=O)N[C@@H](CCC(=O)O)C(=O)O)[C@@H](C)CC)C(C)C [HVF18] (H-HVFRLKKWIQKVIDQFGE-OH) | 105 | 74.3 | 85.0457 | 79.5 | 76.5 | 83.4 | 78.1 | 94.1 | 84.3 | 83.2 | 88.3 | 107 | 97.5 | 80.5 | 82.3 | 89.5 | 92.1 | 82.5 | 103 | 90.6 | viability at 20 h, 20 µM ([3]; with LPS, replicate 2): 85.3%; viability at 20 h, 20 µM ([3]; with LPS, replicate 3): 77.4%; viability at 20 h, 20 µM ([3]; with LPS, replicate 4): 91.1%; viability at 20 h, 20 µM ([3]; without LPS, replicate 1): 99.3%; viability at 20 h, 20 µM ([3]; without LPS, replicate 2): 72.9%; viability at 20 h, 20 µM ([3]; without LPS, replicate 3): 84.9%; viability at 20 h, 20 µM ([3]; without LPS, replicate 4): 73.7%; Kd (hCD14; with NaCl (150 mM), measurement 1): 3.2 µM; Kd (hCD14; with NaCl (150 mM), measurement 2): 2.5 µM; Kd (hCD14; with NaCl (150 mM), measurement 3): 1.1 µM; Kd (hCD14; with NaCl (150 mM), measurement 4): 2.7 µM; Kd (hCD14; with NaCl (150 mM), measurement 5): 2.5 µM; Kd (hCD14; with NaCl (150 mM), measurement 6): 1.6 µM; Kd (hCD14; without NaCl, measurement 1): 8.3 µM; Kd (hCD14; without NaCl, measurement 2): 6.2 µM; Kd (hCD14; without NaCl, measurement 3): 5.9 µM; Kd (hCD14; without NaCl, measurement 4): 8.7 µM; Kd (hCD14; without NaCl, measurement 5): 7.5 µM; Kd (hCD14; without NaCl, measurement 6): 2.1 µM |
